This note sets out measurements from patent US12377083B2 (WUHAN LL SCIENCE AND TECHNOLOGY DEVELOPMENT CO., LTD., priority 2019, dated 2025).

pIC50: −log10 of the molar value.

What all share (assay type): cell-based
Series [1] concerns the target hLPAR1 (human lysophosphatidic acid receptor 1) (Homo sapiens, UniProt Q92633). As to the kind of experiment: FLIPR assay of intracellular calcium increase induced by activation of hLPAR1 expressed in CHO-K1 cells. Conditions: CHO-K1 cells expressing hLPAR1, agonist oleoyl-L-α-lysophosphatidic acid 1 μM; read-out: LPAR1 IC50. As for the experimental part:
The antagonist property of the compounds disclosed herein was determined using the FLIPR (fluorescence imaging plate reader) method, wherein the compounds are inhibitors for the intracellular calcium increase induced by activation of hLPAR1 (human lysophosphatidic acid receptor 1, accession No. NM_001401.4) expressed in CHO-K1 cells (Chinese hamster ovary cells K1, ATCC).
Cells at 250,000 cells/mL were seeded into a 96-well plate (25,000 cells/well) 18-24 h prior to the FLIPR experiment and then incubated overnight in a cell incubator. […] Each well was added with 75 μL of […] Fluo-4 AM fluorescent dye (Thermo, F14202) and then the cells were subjected to dye-loading incubation at 37° C. for 1.0 h. The 96-well plate was then washed once with buffer, added with a buffer containing a test compound or a vehicle at 50 μL per well and then incubated for 30 min at room temperature. […] An agonist (oleoyl-L-α-lysophosphatidic acid sodium salt (Sigma, L7260)) at a final concentration of 1 μM or a vehicle (ultrapure water) was then added at 50 μL/well, fluorescence values were measured for 2 min at 1-second intervals, and finally the output fluorescence counts were analyzed.

Series [2] deals with A2058 (human melanoma cells). The series can be described thus: A2058 cell scratch (migration) assay with LPA. Conditions: 10 μM LPA, scratch area at 24 h. As for the experimental part: The activity of the compounds disclosed herein at the cell level in vitro is evaluated by A2058 (human melanoma cells, Beina Bio, BNCC341099) cell scratch assay. The inhibitory activity of the compounds against LPAR1 can be reflected by inhibition of cell scratch healing.
After the cell confluence reached 80%, the cell culture plate was taken out and the original medium was discarded. Serum-free medium was then added, and the cells were starved overnight in an incubator (37° C., 5% CO2). The cell culture plate was then taken out, and cell scratches were made along the diameter of the wells using a 200 μL pipette tip. The cell culture plate was then added with 500 μL of serum-free medium and then shaken gently to wash away the residual cells on the scratched surface, and this was repeated twice. The medium was discarded and 500 μL of 1% FBS medium containing the compound was then added, and the mixture was incubated at 37° C. for 30 min. […] Olympus CKX53 was used to observe the scratches, and MShot image analysis system was used to take pictures and measure the scratch area at 0 h. The plate was incubated in the incubator under the conditions of 37° C. and 5% CO2. 24 h later, the scratches were observed again with Olympus CKX53, and MShot image analysis system was used to take pictures and measure the scratch area at 24 h. Cell migration inhibition rate was calculated according to the following formula: […]

Series [3] can be described thus: In vitro cytotoxicity assay in HepG2 cells, CCK-8 method. As to conditions: human. Here is the method:
In vitro cytotoxicity assay for the compounds disclosed herein was performed in HepG2 cells using the CCK-8 method. HepG2 cells (Beina Bio) in the logarithmic growth phase were collected, the concentration of cell suspension was adjusted, and then the cells were plated on a 96-well cell culture plate at 50,000 cells/well. The cells were then incubated overnight in a cell incubator (5% CO2, 37° C.), and after 80-90% cell confluence was achieved, test compounds or vehicle (DMSO) at various concentration gradients were added after medium change. The resulting mixture was incubated in the cell incubator (5% CO2, 37° C.) for 48 h. After the treatment, the medium in the plate was discarded. The plate was washed twice with PBS, added with CCK-8 working solution (Beyotime) at 100 μL per well, and then incubated at 37° C. for 1.5 h away from the light. Absorbance at OD450 nm was measured for each well on a microplate reader, and CC50 value of each compound was analyzed and calculated.
(Formazan colour is commonly taken as a measure of viable cells.)

Chain of hLPAR1 (human lysophosphatidic acid receptor 1) (Q92633 whole entry): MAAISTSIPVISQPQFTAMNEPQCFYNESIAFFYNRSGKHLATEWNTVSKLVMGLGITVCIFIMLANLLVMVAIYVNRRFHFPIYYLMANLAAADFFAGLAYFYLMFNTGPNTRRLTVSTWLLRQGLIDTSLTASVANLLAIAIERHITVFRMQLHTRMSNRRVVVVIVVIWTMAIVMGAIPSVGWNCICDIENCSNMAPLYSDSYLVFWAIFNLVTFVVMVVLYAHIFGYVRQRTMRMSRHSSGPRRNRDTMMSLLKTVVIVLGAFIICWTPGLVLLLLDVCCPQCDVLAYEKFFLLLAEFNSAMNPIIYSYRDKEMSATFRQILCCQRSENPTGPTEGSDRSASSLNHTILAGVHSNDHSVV

Usually pIC50 stands for the negative decadic logarithm of the IC50, by convention in mol/L. For orientation: CC50 means the concentration at which the toxic effect on the cells reaches its halfway point. Read a low CC50 as greater toxicity to the cells. As to `CN(Cc1ccccc1)C(=O)OCc1ocnc1-c1ccc(O[C@H]2CCC[C@H](C(=O)O)C2)cc1` (racemic) [Compound 1, (+/−)-(1S,3S)-3-(4-(5-(((benzyl(methyl)carbamoyl)oxy)methyl)oxazol-4-yl)phenoxy)cyclohexane-1-carboxylic Acid], the pIC50 in series [1] was 5.00 to 6.52. Besides, the “Cell migration inhibition rate (%)” value in series [2] is “C (C: 0-30%)”. The compound further showed a CC50 at 48 h in series [3] of more than 200 µM.

`CN(C(=O)OCc1c(-c2ccc(O[C@H]3CCC[C@H](C(=O)O)C3)c(Cl)n2)cnn1C)C1CCCC1` (racemic) [Compound 61, (+/−)-(1S,3S)-3-((2-chloro-6-(5-(((cyclopentyl(methyl)carbamoyl)oxy)methyl)-1-methyl-1H-pyrazol-4-yl)pyridin-3-yl)oxy)cyclohexane-1-carboxylic Acid]: in series [1], the pIC50 was more than 7.30. In series [2], the “Cell migration inhibition rate (%)” value is “A (A: 50-70%)”. For the same compound, the 50% cytotoxic concentration (CC50) at 48 h in series [3] was more than 200 µM.

Turning to `CN(Cc1ccccc1)C(=O)OCc1nc2c(O[C@H]3CCC[C@H](C(=O)O)C3)cccc2s1` (racemic) [Compound 23, (+/−)-(1S,3S)-3-((2-(((benzyl(methyl)carbamoyl)oxy)methyl)benzo[d]thiazole-4-yl)oxy)cyclohexane-1-carboxylic Acid], the negative-log IC50 (pIC50) in series [1] was 5.00 to 6.52. Also, the “Cell migration inhibition rate (%)” value in series [2] is “C (C: 0-30%)”. The compound also returned a CC50 at 48 h in series [3] of more than 200 µM.

With `CN(C(=O)OCc1ccccc1-c1ccc(O[C@H]2CCC[C@H](C(=O)O)C2)cc1)C1CCCC1` (racemic) [Compound 21, (+/−)-(1S,3S)-3-((2′-(((cyclopentyl(methyl)carbamoyl)oxy)methyl)-[1,1′-biphenyl]-4-yl)oxy)cyclohexane-1-carboxylate], the negative-log IC50 (pIC50) in series [1] is 5.00 to 6.52. In addition, the “Cell migration inhibition rate (%)” value in series [2] is recorded as “C (C: 0-30%)”. The compound further registered a CC50 at 48 h in series [3] of more than 200 µM.

For `Cc1noc(-c2ccc(C3(C(=O)O)CC3)cc2)c1NC(=O)O[C@H](C)c1ccccc1` [Compound 3], the pIC50 in series [1] is 5.00 to 6.52. For the same compound, in series [2], the “Cell migration inhibition rate (%)” value was “C (C: 0-30%)”. Moreover, the CC50 at 48 h in series [3] was more than 200 µM.

Take `CN(C(=O)OCc1nocc1-c1ccc(O[C@H]2CCC[C@H](C(=O)O)C2)cc1)C1CCCC1` (racemic) [Compound 9, (+/−)-(1S,3S)-3-(4-(3-(((cyclopentyl(methyl)carbamoyl)oxy)methyl)isoxazol-4-yl)phenoxy)cyclohexane-1-carboxylic Acid]: the negative logarithm of the IC50 (pIC50) in series [1] is 5.00 to 6.52. Also, the “Cell migration inhibition rate (%)” value in series [2] is reported as “C (C: 0-30%)”. In series [3], this compound came in with a CC50 at 48 h of more than 200 µM.

As for `Cc1nc(-c2c[nH]c(C)c2COC(=O)N(C)C2CCCC2)ccc1O[C@H]1CCC[C@H](C(=O)O)C1` (racemic) [Compound 41], the pIC50 in series [1] was more than 7.30. The “Cell migration inhibition rate (%)” value in series [2] is on record as “B (B: 30-50%)”. The compound further showed a 50% cytotoxic concentration (CC50) at 48 h in series [3] of more than 200 µM.

In the case of `Cc1csc(-c2ccc(O[C@H]3CCC[C@H](C(=O)O)C3)c(C)n2)c1COC(=O)N(C)C1CCCC1` (racemic) [Compound 46], the negative-log IC50 (pIC50) in series [1] is more than 7.30. Further, the “Cell migration inhibition rate (%)” value in series [2] was “A (A: 50-70%)”. In series [3], the half-maximal cytotoxic concentration (CC50) at 48 h is more than 200 µM.

In the case of `Cc1cnn(-c2ccc(O[C@H]3CCC[C@H](C(=O)O)C3)cc2)c1COC(=O)N(C)C1CCCC1` (racemic) [Compound 30, (+/−)-(1S,3S)-3-(4-(5-(((cyclopentyl(methyl)carbamoyl)oxy)methyl)-4-methyl-1H-pyrazol-1-yl)phenoxy)cyclohexanoic Acid], in series [1], the negative-log IC50 (pIC50) is more than 7.30. In addition, the “Cell migration inhibition rate (%)” value in series [2] is recorded as “B (B: 30-50%)”. Moreover, the CC50 at 48 h in series [3] is more than 200 µM.

Take `Cc1nc(-c2nsc(C)c2COC(=O)N(C)C2CCCC2)ccc1O[C@H]1CCC[C@H](C(=O)O)C1` (racemic) [Compound 39]: the negative-log IC50 (pIC50) in series [1] was more than 7.30. The “Cell migration inhibition rate (%)” value in series [2] is on record as “B (B: 30-50%)”. In addition, the cytotoxic concentration (CC50) at 48 h in series [3] was more than 200 µM.

`Cc1nc(-c2[nH]nc(C)c2COC(=O)N(C)C2CCCC2)ccc1O[C@H]1CCC[C@H](C(=O)O)C1` (racemic) [Compound 53]: the negative logarithm of the IC50 (pIC50) in series [1] was more than 7.30. Moreover, in series [2], the “Cell migration inhibition rate (%)” value is recorded as “A (A: 50-70%)”. In series [3], this compound displayed a 50% cytotoxic concentration (CC50) at 48 h of more than 200 µM.

As to `CN(C(=O)OCc1c(-c2ccc(O[C@H]3CCC[C@H](C(=O)O)C3)c(F)c2)ncn1C)C1CCCC1` (racemic) [Compound 34, (+/−)-(1S,3S)-3-(4-(5-(((cyclopentyl(methyl)carbamoyl)oxy)methyl)-1-methyl-1H-imidazol-4-yl)-2-fluorophenoxy)cyclohexane-1-carboxylic Acid], in series [1], the pIC50 is 6.52 to 7.30. Moreover, the “Cell migration inhibition rate (%)” value in series [2] is on record as “B (B: 30-50%)”. In addition, the 50% cytotoxic concentration (CC50) at 48 h in series [3] was more than 200 µM.

Regarding `Cc1nc(-c2coc(C)c2COC(=O)N(C)C2CCCC2)ccc1O[C@H]1CCC[C@H](C(=O)O)C1` (racemic) [Compound 42], the pIC50 in series [1] was more than 7.30. For the same compound, the “Cell migration inhibition rate (%)” value in series [2] is recorded as “A (A: 50-70%)”. In series [3], this compound registered a CC50 at 48 h of more than 200 µM.

For `CN(C(=O)OCc1c(-c2ccc(O[C@H]3CCC[C@H](C(=O)O)C3)cc2)ncn1C)C1CCCC1` (racemic) [Compound 12, (+/−)-(1S,3S)-3-(4-(5-(((cyclopentyl(methyl)carbamoyl)oxy)methyl)-1-methyl-1H-imidazol-4-yl)phenoxy)cyclohexane-1-carboxylate], in series [1], the negative logarithm of the IC50 (pIC50) was 5.00 to 6.52. Also, in series [2], the “Cell migration inhibition rate (%)” value is recorded as “C (C: 0-30%)”. In series [3], this compound gave a 50% cytotoxic concentration (CC50) at 48 h of more than 200 µM.

`CN(C(=O)OCc1c(-c2ccc(O[C@H]3CCC[C@H](C(=O)O)C3)c(C(F)(F)F)n2)ncn1C)C1CCCC1` (racemic) [Compound 32]: in series [1], the pIC50 was 6.52 to 7.30. Besides, the “Cell migration inhibition rate (%)” value in series [2] was “B (B: 30-50%)”. The compound further came in with a cytotoxic concentration (CC50) at 48 h in series [3] of more than 200 µM.

For the compound `Cc1nc(-c2c(F)nn(C)c2COC(=O)N(C)C2CCCC2)ccc1O[C@H]1CCC[C@H](C(=O)O)C1` [Compound 57], the pIC50 in series [1] was more than 7.30. In series [2], the “Cell migration inhibition rate (%)” value was “A (A: 50-70%)”. In series [3], this compound yielded a half-maximal cytotoxic concentration (CC50) at 48 h of more than 200 µM.

In the case of `Cc1nc(-c2ncnc(C)c2COC(=O)N(C)C2CCCC2)ccc1O[C@H]1CCC[C@H](C(=O)O)C1` (racemic) [Compound 51], the pIC50 in series [1] was more than 7.30. For the same compound, in series [2], the “Cell migration inhibition rate (%)” value is “A (A: 50-70%)”. The same compound returned a half-maximal cytotoxic concentration (CC50) at 48 h in series [3] of more than 200 µM.

As to `Cc1n[nH]c(-c2ccc(O[C@H]3CCC[C@H](C(=O)O)C3)cc2)c1COC(=O)N(C)C1CCCC1` (racemic) [Compound 27], the pIC50 in series [1] is more than 7.30. Further, the “Cell migration inhibition rate (%)” value in series [2] is “B (B: 30-50%)”. In series [3], this compound came in with a CC50 at 48 h of more than 200 µM.

`CN(C(=O)OCc1ocnc1-c1ccc(O[C@H]2CCC[C@H](C(=O)O)C2)c(C(F)(F)F)n1)C1CCCC1` (racemic) [Compound 25]: the pIC50 in series [1] was 5.00 to 6.52. Also, the “Cell migration inhibition rate (%)” value in series [2] is “B (B: 30-50%)”. In series [3], this compound came in with a CC50 at 48 h of more than 200 µM.

With `Cc1c[nH]c(-c2ccc(O[C@H]3CCC[C@H](C(=O)O)C3)c(C)n2)c1COC(=O)N(C)C1CCCC1` (racemic) [Compound 44], the pIC50 in series [1] is more than 7.30. In addition, the “Cell migration inhibition rate (%)” value in series [2] is reported as “B (B: 30-50%)”. Besides, the half-maximal cytotoxic concentration (CC50) at 48 h in series [3] is more than 200 µM.

Turning to `CN(C(=O)OCc1c(-c2ncc(O[C@H]3CCC[C@H](C(=O)O)C3)cn2)cnn1C)C1CCCC1` (racemic) [Compound 100, (+/−)-(1S,3S)-3-((2-(5-(((cyclopentyl(methyl)carbamoyl)oxy)methyl)-1-methyl-1H-pyrazol-4-yl)pyrimidin-5-yl)oxy)cyclohexane-1-carboxylic Acid], in series [1], the pIC50 was 5.00 to 6.52. The “Cell migration inhibition rate (%)” value in series [2] is on record as “B (B: 30-50%)”. This compound also displayed a CC50 at 48 h in series [3] of more than 200 µM.
